PubChem BioAssay AID248 (DTP/NCI, 2004)
Inconclusive results and toxic doses are left out.

System: L1210 leukemia ip in BDF1 mice, survival T/C
Experiment: NCI In Vivo Anticancer Drug Screen. Data for tumor model L1210 Leukemia (intraperitoneal) in B6D2F1 (BDF1) mice
Settings: endpoint: mean survival time, higher = longer survival
Method in brief: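 In this screen, tumor-bearing mice given compound are compared to those given vehicle, and their survival values are reported as a treated-to-control quotient.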

[1] = dose: 100.0 mg/kg/injection, schedule: Q01DX009 (ip), vehicle: saline
[2] = dose: 200.0 mg/kg/injection, schedule: Q01DX001 (ip), vehicle: saline
[3] = dose: 100.0 mg/kg/injection, schedule: Q04DX003 (ip), vehicle: saline
[4] = dose: 200.0 mg/kg/injection, schedule: Q04DX003 (ip), vehicle: saline
[5] = dose: 400.0 mg/kg/injection, schedule: Q04DX003 (ip), vehicle: saline

With `Nc1cccs1` the T/C (dose: 8.12 mg/kg/injection, schedule: Q01DX009 (ip), vehicle: saline) was 100 % of control, the T/C (dose: 9.37 mg/kg/injection, schedule: Q01DX009 (ip), vehicle: other) was 94 % of control and the T/C (dose: 16.25 mg/kg/injection, schedule: Q01DX009 (ip), vehicle: saline) was 100 % of control. The T/C (dose: 18.75 mg/kg/injection, schedule: Q01DX009 (ip), vehicle: other) was 107 % of control, the T/C (dose: 37.5 mg/kg/injection, schedule: Q01DX009 (ip), vehicle: other) was 107 % of control and the T/C (dose: 75.0 mg/kg/injection, schedule: Q01DX009 (ip), vehicle: other) was 96 % of control. For the same molecule, the T/C [1] was 153 % of control, the T/C (dose: 150.0 mg/kg/injection, schedule: Q01DX009 (ip), vehicle: other) was 96 % of control and the T/C (dose: 300.0 mg/kg/injection, schedule: Q01DX009 (ip), vehicle: other) was 102 % of control.

For `O=[N+]([O-])c1cc[n+]([O-])c2sccc12`, the T/C (dose: 100.0 mg/kg/injection, schedule: Q04DX003 (ip), vehicle: saline with Tween-80) was 100 % of control, the T/C (dose: 200.0 mg/kg/injection, schedule: Q04DX003 (ip), vehicle: saline with Tween-80) was 109 % of control and the T/C (dose: 400.0 mg/kg/injection, schedule: Q04DX003 (ip), vehicle: saline with Tween-80) was 108 % of control.

With `CCCCCCCCCCCCCCCCOc1ccc(C(=O)OC)cc1N` the T/C (dose: 100.0 mg/kg/injection, schedule: Q04DX003 (ip), vehicle: Klucel (hydroxypropylcellulose) (HPC)) was 102 % of control, the T/C (dose: 200.0 mg/kg/injection, schedule: Q04DX003 (ip), vehicle: Klucel (hydroxypropylcellulose) (HPC)) was 104 % of control and the T/C (dose: 400.0 mg/kg/injection, schedule: Q04DX003 (ip), vehicle: Klucel (hydroxypropylcellulose) (HPC)) was 96 % of control.

With `CCOC(=O)/C=C(\CC(=O)OCC)Nc1ccc(C(=O)c2ccccc2)cc1` the T/C [2] was 89 % of control.

In the case of `ClC1=C(Cl)C2(Cl)C(Cl)CC1(Cl)C2(Cl)Cl` (stereo not drawn), the T/C (dose: 100.0 mg/kg/injection, schedule: Q01DX001 (ip), vehicle: saline) is reported as 97 % of control, the T/C [3] is reported as 110 % of control and the T/C [2] is reported as 90 % of control. For the same molecule, the T/C [4] was 96 % of control and the T/C (dose: 400.0 mg/kg/injection, schedule: Q01DX001 (ip), vehicle: saline) was 97 % of control.

With `O=C(NNC(=O)C1C2CCCCC21)C1C2CCCCC21` (stereo not drawn) the T/C (dose: 100.0 mg/kg/injection, schedule: Q04DX003 (ip), vehicle: acetone) was 105 % of control, the T/C (dose: 200.0 mg/kg/injection, schedule: Q04DX003 (ip), vehicle: acetone) was 91 % of control and the T/C (dose: 400.0 mg/kg/injection, schedule: Q04DX003 (ip), vehicle: acetone) was 97 % of control.

For `Cc1ccc(-n2c(=O)c(N=Nc3ccc(Cl)cc3)c(O)n(-c3ccccc3C)c2=S)cc1`, the T/C (dose: 100.0 mg/kg/injection, schedule: Q01DX001 (ip), vehicle: Klucel (hydroxypropylcellulose) (HPC)) was 97 % of control, the T/C (dose: 200.0 mg/kg/injection, schedule: Q01DX001 (ip), vehicle: Klucel (hydroxypropylcellulose) (HPC)) was 87 % of control and the T/C (dose: 400.0 mg/kg/injection, schedule: Q01DX001 (ip), vehicle: Klucel (hydroxypropylcellulose) (HPC)) was 92 % of control.

`O=[N+]([O-])c1ccc(C2N=C(c3ccccc3)CS2(=O)=O)cc1` (stereo not drawn) was tested, and the T/C [3] was 97 % of control, the T/C [4] was 95 % of control and the T/C [5] was 93 % of control.

With `NC(N)=N/N=C1\CCCC\C1=N/N=C(N)N` the T/C (dose: 15.0 mg/kg/injection, schedule: Q01DX Z (ip), vehicle: carboxymethylcellulose (CMC)) was 97 % of control, the T/C (dose: 30.0 mg/kg/injection, schedule: Q01DX Z (ip), vehicle: carboxymethylcellulose (CMC)) was 95 % of control and the T/C (dose: 60.0 mg/kg/injection, schedule: Q01DX Z (ip), vehicle: carboxymethylcellulose (CMC)) was 91 % of control. The T/C (dose: 60.0 mg/kg/injection, schedule: Q01DX Z (oral), vehicle: carboxymethylcellulose (CMC)) was 96 % of control, the T/C (dose: 120.0 mg/kg/injection, schedule: Q01DX Z (ip), vehicle: carboxymethylcellulose (CMC)) was 102 % of control and the T/C (dose: 120.0 mg/kg/injection, schedule: Q01DX Z (oral), vehicle: carboxymethylcellulose (CMC)) was 93 % of control. The T/C (dose: 240.0 mg/kg/injection, schedule: Q01DX Z (oral), vehicle: carboxymethylcellulose (CMC)) was 88 % of control and the T/C (dose: 480.0 mg/kg/injection, schedule: Q01DX Z (oral), vehicle: carboxymethylcellulose (CMC)) was 98 % of control.

`CCCn1nnc2ccccc2c1=Nc1ccccc1Cl` was tested, and the T/C (dose: 50.0 mg/kg/injection, schedule: Q01DX009 (ip), vehicle: saline) was 97 % of control, the T/C [1] was 88 % of control and the T/C [3] was 110 % of control. For the same molecule, the T/C (dose: 200.0 mg/kg/injection, schedule: Q01DX009 (ip), vehicle: saline) was 97 % of control, the T/C [4] was 106 % of control and the T/C [5] was 100 % of control.

In the case of `CCOP(=O)(Nc1c(Cl)cc2c(c1Cl)Cc1cc([N+](=O)[O-])ccc1-2)OCC`, the T/C (dose: 50.0 mg/kg/injection, schedule: Q01DX001 (ip), vehicle: carboxymethylcellulose (CMC)) is reported as 103 % of control, the T/C (dose: 100.0 mg/kg/injection, schedule: Q01DX001 (ip), vehicle: carboxymethylcellulose (CMC)) is reported as 100 % of control and the T/C (dose: 200.0 mg/kg/injection, schedule: Q01DX001 (ip), vehicle: carboxymethylcellulose (CMC)) is reported as 100 % of control. The T/C (dose: 400.0 mg/kg/injection, schedule: Q01DX001 (ip), vehicle: carboxymethylcellulose (CMC)) was 103 % of control.
